Measurements taken from PubChem BioAssay AID2060609 (Molecular Pharmacology Branch, DTP, NCI, 2025).

Tested on: 855422-203-R-J1-PDC complex spheroids, viability
Experiment: Anticancer human tumor 855422-203-R-J1-PDC patient-derived bladder carcinoma cell line growth inhibition [CLK]
Conditions: for IC50: curve of first compound; for viability, T/C: stronger effect = lower value; active = viability on the fitted dose curve at most 10% of control; inactive = the rest
Outline: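 Multi-cell-type spheroids combined patient-derived tumor cells with HUVEC endothelial cells and human mesenchymal stem cells. Paired agents were dosed in half-log steps down from about clinical Cmax, or from 10 microM where Cmax was unknown.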

[1] = second compound 0.0316 µM, first compound 0.0316 µM
[2] = second compound 0.0316 µM, first compound 0.1 µM
[3] = second compound 0.0316 µM, first compound 0.316 µM
[4] = second compound 0.0316 µM, first compound 1 µM
[5] = second compound 0.0316 µM, first compound 3.16 µM
[6] = second compound 0.0316 µM, first compound 10 µM
[7] = second compound 0.1 µM, first compound 0.0316 µM
[8] = second compound 0.1 µM, first compound 0.1 µM
[9] = second compound 0.1 µM, first compound 0.316 µM
[10] = second compound 0.1 µM, first compound 1 µM
[11] = second compound 0.1 µM, first compound 3.16 µM
[12] = second compound 0.1 µM, first compound 10 µM
[13] = second compound 0.316 µM, first compound 0.0316 µM
[14] = second compound 0.316 µM, first compound 0.1 µM
[15] = second compound 0.316 µM, first compound 0.316 µM
[16] = second compound 0.316 µM, first compound 1 µM
[17] = second compound 0.316 µM, first compound 3.16 µM
[18] = second compound 0.316 µM, first compound 10 µM
[19] = second compound 1 µM, first compound 0.0316 µM
[20] = second compound 1 µM, first compound 0.1 µM
[21] = second compound 1 µM, first compound 0.316 µM
[22] = second compound 1 µM, first compound 1 µM
[23] = second compound 1 µM, first compound 3.16 µM
[24] = second compound 1 µM, first compound 10 µM
[25] = second compound 3.16 µM, first compound 0.0316 µM
[26] = second compound 3.16 µM, first compound 0.1 µM
[27] = second compound 3.16 µM, first compound 0.316 µM
[28] = second compound 3.16 µM, first compound 1 µM
[29] = second compound 3.16 µM, first compound 3.16 µM
[30] = second compound 3.16 µM, first compound 10 µM
[31] = second compound 10 µM, first compound 0.0316 µM
[32] = second compound 10 µM, first compound 0.1 µM
[33] = second compound 10 µM, first compound 0.316 µM
[34] = second compound 10 µM, first compound 1 µM
[35] = second compound 10 µM, first compound 3.16 µM
[36] = second compound 10 µM, first compound 10 µM
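Note: spheroids exposed to drugs for seven days before readout.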
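Throughout, for viability, T/C: 100% = DMSO vehicle control wells.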

CC1COCCN1c1cc(C2(S(C)(=N)=O)CC2)nc(-c2ccnc3[nH]ccc23)n1 (centres undefined) + CN1CCN(c2cc(C(=O)Nc3cc4cc(-c5cnn(C)c5)ccc4cn3)ccn2)CC1
1850 nM: IC50 (second compound 0.1 µM)
< 31.6 nM: IC50 (second compound 0.316 µM) | IC50 (second compound 1 µM) | IC50 (second compound 3.16 µM) | IC50 (second compound 10 µM)
active: viability, T/C [15] 7.7% | viability, T/C [16] 6% | viability, T/C [17] 5.18% | viability, T/C [18] 3.25% | viability, T/C [19] 0.34% | viability, T/C [20] 0.27% | viability, T/C [21] 1.14% | viability, T/C [22] 0.17% | viability, T/C [23] 0.14% | viability, T/C [24] 0.19% | viability, T/C [25] 0.75% | viability, T/C [26] 0.61% | viability, T/C [27] 0.62% | viability, T/C [28] 0.51% | viability, T/C [29] 0.85% | viability, T/C [30] 0.37% | viability, T/C [31] 0.44% | viability, T/C [32] 0.31% | viability, T/C [33] 0.9% | viability, T/C [34] 0.36% | viability, T/C [35] 1.72% | viability, T/C [36] 0.63%
2250 nM: IC50 (second compound 0.0316 µM)
inactive: viability, T/C [1] 103% | viability, T/C [2] 117% | viability, T/C [3] 89.6% | viability, T/C [4] 93% | viability, T/C [5] 32% | viability, T/C [6] 10.6% | viability, T/C [7] 70.6% | viability, T/C [8] 91% | viability, T/C [9] 80.3% | viability, T/C [10] 80.1% | viability, T/C [11] 24% | viability, T/C [12] 12.2% | viability, T/C [13] 9.48% | viability, T/C [14] 14%

CC(Nc1ccc2c(c1)OCCn1cc(N3C(=O)OCC3C(F)F)nc1-2)C(N)=O (centres undefined) + CNC(=O)c1ccc(Nc2nc(OC3CCCC3)c3c(-c4ccc5nc(C)oc5c4)c[nH]c3n2)c(OC)c1
< 31.6 nM: IC50 (second compound 0.316 µM) | IC50 (second compound 1 µM) | IC50 (second compound 3.16 µM) | IC50 (second compound 10 µM)
active: viability, T/C [17] 9.9% | viability, T/C [18] 6.79% | viability, T/C [22] 9.1% | viability, T/C [23] 8.21% | viability, T/C [24] 4.44% | viability, T/C [28] 9.68% | viability, T/C [29] 8.52% | viability, T/C [30] 5.74% | viability, T/C [34] 10.3% | viability, T/C [35] 7.09% | viability, T/C [36] 3.99%
181 nM: IC50 (second compound 0.1 µM)
161 nM: IC50 (second compound 0.0316 µM)
inactive: viability, T/C [1] 80.5% | viability, T/C [2] 59.6% | viability, T/C [3] 36.1% | viability, T/C [4] 26.3% | viability, T/C [5] 19.7% | viability, T/C [6] 11.1% | viability, T/C [7] 61.9% | viability, T/C [8] 58.6% | viability, T/C [9] 42.6% | viability, T/C [10] 27.5% | viability, T/C [11] 19.7% | viability, T/C [12] 12% | viability, T/C [13] 15.8% | viability, T/C [14] 15.3% | viability, T/C [15] 13.8% | viability, T/C [16] 13.4% | viability, T/C [19] 16.9% | viability, T/C [20] 16.6% | viability, T/C [21] 11.4% | viability, T/C [25] 21.2% | viability, T/C [26] 15.8% | viability, T/C [27] 9.09% | viability, T/C [31] 15.8% | viability, T/C [32] 12.1% | viability, T/C [33] 10.3%
